Calls of active or inactive are those of the source. The calls are words filed in the database; no cut-off is given here.

One assay concerns Leishmania donovani. The experiment in a line: Antileishmanial activity against Leishmania donovani HOM/IN/80DD8 in hamster at 50 mg/kg, ip after 7 days.
Settings: not given
`CC1=C(/C=C/c2cc(N3CCNCC3)nc(N)n2)C(C)(C)CCC1`: the outcome was inactive. Still for that read-out and setting: then `CC1=C(/C=C/c2cc(N3CCOCC3)nc(N)n2)C(C)(C)CCC1`, with “inactive”; and `CC1=C(/C=C/c2cc(NC3CCCCC3)nc(N)n2)C(C)(C)CCC1`, with “inactive”; and `CC1=C(/C=C/c2cc(Nc3cccc(F)c3)nc(N)n2)C(C)(C)CCC1`, with “inactive”. On the same count and under the same terms, in the case of `CC1=C(/C=C/c2cc(Nc3ccc(Cl)cc3)nc(N)n2)C(C)(C)CCC1` it was “inactive”; in that of `CC1=C(/C=C/c2cc(Nc3ccc(F)cc3)nc(N)n2)C(C)(C)CCC1`, “inactive”. `CC1=C(/C=C/c2cc(N3CCCCC3)nc(N)n2)C(C)(C)CCC1`: the outcome was inactive. As for `CC1=C(/C=C/c2cc(NN)nc(N)n2)C(C)(C)CCC1`, the outcome was inactive.

In the case of `CC1=C(/C=C/c2cc(N3CCN(c4ccccc4)CC3)nc(N)n2)C(C)(C)CCC1`, the outcome was inactive.

For the compound `CC1=C(/C=C/c2cc(NCc3ccccc3)nc(N)n2)C(C)(C)CCC1`, the result was inactive. Still for that read-out and setting: then `COc1ccc(Nc2cc(/C=C/C3=C(C)CCCC3(C)C)nc(N)n2)cc1`, with “inactive”.

Staying with this assay, now noted: HOM/IN/80DD8, ip, 168 h.
`CC1=C(/C=C/c2cc(Nc3ccccc3)nc(N)n2)C(C)(C)CCC1`: at 50 mg/kg the inhibition in vivo was 31%. Same read-out and setting: in the case of `CCN(c1ccccc1)c1cc(/C=C/C2=C(C)CCCC2(C)C)nc(N)n1` it was 40%. On the same count and under the same terms, in the case of `CSc1cc(/C=C/C2=C(C)CCCC2(C)C)nc(N)n1` it was 66%.

The values above are taken from ChEMBL document CHEMBL1148698, “Chemotherapy of leishmaniasis. Part VII: synthesis and bioevaluation of substituted terpenyl pyrimidines” (2007).
